From patent US20110105599A1, “THERAPEUTIC OR PREVENTIVE AGENTS FOR ISCHEMIC NEUROPATHY” (Dainippon Sumitomo Pharma Co., Ltd., priority 2003, published 2011)
“Also recorded” adds a separate entry of the source.

Key:
[1] = test system: increased intra ocular pressure model (retina of SD rats); assay: Pharmacological effect on an increased intra ocular pressure model (retinal layer thickness); type: in vivo, rat; conditions: for thickness of outer nuclear layer (ONL), Average / thickness of inner nuclear layer (INL), Average / thickness of inner plexus layer (IPL), Average: 5 μl of 0.1 mg/ml to the vitreous body; for cell death of inner granular cells due to increased intra ocular pressure (in words): overall conclusion of the example; for decrease of the thickness of the inner granular cell layer (INL) due to increased intra ocular pressure (in words) / decrease of the thickness of the inner plexus layer (IPL) due to increased intra ocular pressure (in words): compared to IOP increase load + PBS group, Student's t-test; for influence of administration on the outer nuclear layer (in words): rats with IOP increase load, pre- or post-administration to the vitreous body
Description: The retinal nerve consists of the extraretinal granular layer, granule cells in the retina and the gangliocyte layer, and granule cells in the retina and the gangliocyte layer receive blood supply from the central retinal artery. When pressure is imposed on the anterior chamber, a load is imposed on the cribrosa lamina which is not covered with the sclera and the central retinal artery which extends through this area is occluded, and as a result, granule cells in the retina and the gangliocyte layer becomes ischemic, and cell death occurs.
The damage of granule cells in the retina can be readily evaluated as “the thickness of the inner nuclear layer (INL)” representing the change in number of the cells. Since the inner plexus layer, synapses between each neurons, is also damaged by the increase in the intra ocular pressure and made thinner, the thickness of the inner plexus layer (IPL) becomes an indicator to show the degree of damage. Therapeutic or preventive agents for retinal neuropathy having a suppressive effect have been explored using these two parameters as indices.
20 SD rats (6-week old) were used and divided into the following groups. • Sham operation (sometimes abbreviated as Sham ope hereinbelow): Five rats (Of these, 4 rats were used for analysis) • IOP (Intra Ocular pressure) treatment+PBS (5 μl was administered to the vitreous body): Five rats (Of these, 4 rats were used for analysis) • IOP (Intra Ocular pressure) treatment+test compound (5 μl was pre-administered to the vitreous body): Five rats (Of these, 4 rats were used for analysis) • IOP (Intra Ocular pressure) treatment+test compound (5 μl was post-administered to the vitreous body): Five rats (Of these, 4 rats were used for analysis) • (2) Increase in Intra Ocular Pressure
By the following steps, increased intra ocular pressure model animals were prepared and a drug (test compound) was administered thereto.
(i) A rat was set to a brain stereotaxic apparatus under anesthesia with […].
(ii) The head of the rat was fixed and an eyeball was pricked with a 26-G needle attached to the tip of a tube, which was connected to a sphygmomanometry device, into the rat anterior chamber and a load was imposed so that the inner pressure of the anterior chamber was 140 to 160 mmHg.
(iii) As for the timing of the administration of a drug into the vitreous body, the drug was administered 15 minutes before the intra ocular pressure increasing load for pre-administration, while the drug was administered 15 minutes after the intra ocular pressure increasing load for post-administration.
(iv) Increase in intra ocular pressure was maintained for one hour, and the rat was relieved from the brain anchor after the intra ocular pressure loading and ordinarily bred for one week.
(v) After sacrificed by suffocation with carbon dioxide, eyeballs were removed.
(vi) A paraffin section of the retina was prepared and dyed with 0.5% cresyl violet.
(vii) A histological image at a position 880 μm from the optic papilla (upper part of the retina) was photographed and the thicknesses of the outer nuclear layer (ONL), inner nuclear layer (INL) and inner plexus layer (IPL) were measured. • (3) Preparation of a Drug and Administration Method
SPF-3059-1 as a test substance was dissolved in PBS to a concentration of 1 mg/ml and further diluted with PBS to 0.1 mg/ml immediately before use. 5 μl of the diluted solution was administered to the vitreous body of the left eye of a rat with a 30G double needle. • (4) Significance Test
Intra ocular pressure was increased by the method of above (2) and significance tests were conducted by Student's t-test and Welch & F-test on the retinal protection effect of SPF-3059-1 administration in rats to which PBS was administered to the vitreous body.
Each of the thickness of outer nuclear layer, inner nuclear layer and inner plexus layer was measured using the retina of the rats in each treatment group, and a cytoprotective effect was evaluated. […]

[2] = Solubility (physico-chemical properties of the prepared compound); type: physicochemical
Description: Each compound of the present invention is a known compound and is disclosed by WO02/09756 or WO03/062243 and can be produced from SPF-3059 strain which is a fungus belonging to the genus Penicillium. Production process and physico-chemical properties are described in the above international publication pamphlets. Specifically, the following compounds were respectively prepared. • (Compound SPF-3059-1) • Appearance: Yellow powder • High resolution fast atom bombardment mass spectrum • (HRFAB-MS) m/z (M+H)^+: • Observed value: 579.0772 • Calculated value: 579.0776 • Molecular formula: C28H18O14 • Ultraviolet visible absorption spectrum λ max (in methanol) nm(ε): […]

[3] = test system: increased intra ocular pressure model (retina of SD rats); assay: Pharmacological effect on an increased intra ocular pressure model (retinal layer thickness); type: in vivo, rat; conditions: Example 2, 7-week old SD rats, 5 μl of 0.1 mg/ml to the vitreous body
cultured nerve cells = conditions: in a short period of time; as low as; cited from earlier work
[4] = Example 1, 6-week old SD rats, IOP increase load + test substance post-administration, one week after load
[5] = Example 1, 6-week old SD rats, IOP increase load + test substance pre-administration, one week after load
[6] = IOP increase load + test substance pre-administration
[7] = Example 2, 7-week old SD rats, IOP increase load + test substance post-administration

Molecule: CC(=O)c1c(C)c(C(=O)C2COc3cc(O)c(O)c(C(=O)O)c3C2=O)cc2c(=O)c3c(C(=O)O)c(O)c(O)cc3oc12 (centres unmarked) [SPF-3059-1]
- thickness of outer nuclear layer (ONL), Average ([1]; Example 1, 6-week old SD rats, IOP increase load + test substance post-administration (15 minutes after load), one week after load): 45.56 μm
- thickness of inner nuclear layer (INL), Average [1, 4]: 27.89 μm
- thickness of inner plexus layer (IPL), Average [1, 4]: 40.45 μm
- thickness of outer nuclear layer (ONL), Average ([1]; Example 1, 6-week old SD rats, IOP increase load + test substance pre-administration (15 minutes before load), one week after load): 45.79 μm
- thickness of inner nuclear layer (INL), Average [1, 5]: 29.56 μm
- thickness of inner plexus layer (IPL), Average [1, 5]: 46.89 μm
- cell death of inner granular cells due to increased intra ocular pressure (in words) [1]: suppressed
- decrease of the thickness of the inner granular cell layer (INL) due to increased intra ocular pressure (in words) ([1]; post-administration): tends to be suppressed; also recorded: suppressing tendency
- decrease of the thickness of the inner plexus layer (IPL) due to increased intra ocular pressure (in words) ([1]; post-administration): tends to be suppressed; also recorded: suppressing tendency
- decrease of the thickness of the inner granular cell layer (INL) due to increased intra ocular pressure (in words) ([1]; pre-administration): suppressed significantly; also recorded: suppressing effect
- decrease of the thickness of the inner plexus layer (IPL) due to increased intra ocular pressure (in words) ([1]; pre-administration): suppressed significantly; also recorded: suppressing effect
- influence of administration on the outer nuclear layer (in words) [1]: does not have an influence

Molecule: CC(=O)c1cc2c(=O)c3c(C(=O)O)c(O)c(O)cc3oc2c(C(C)=O)c1-c1coc2cc(O)c(O)cc2c1=O [SPF-3059-24]
- Solubility ([2]; in DMSO): soluble
- Solubility ([2]; in hexane): Insoluble
- Solubility ([2]; in methanol): soluble
- Solubility ([2]; in water): Insoluble

Molecule: CC(=O)c1cc2c(=O)c3c(C(=O)O)c(O)c(O)cc3oc2c(C(C)=O)c1-c1coc2cc(O)c(O)c(C(=O)O)c2c1=O [SPF-3059-5]
- thickness of outer nuclear layer (ONL), Average ([3]; IOP increase load + test substance post-administration): 61.76 μm
- thickness of inner nuclear layer (INL), Average [3, 6]: 33.09 μm
- thickness of inner plexus layer (IPL), Average [3, 6]: 55.88 μm
- thickness of outer nuclear layer (ONL), Average [3, 6]: 60.29 μm
- thickness of inner nuclear layer (INL), Average [1, 7]: 36.76 μm
- thickness of inner plexus layer (IPL), Average [1, 7]: 55.15 μm
- cell death of inner granular cells due to increased intra ocular pressure (in words) [1]: suppressed
- decrease of the thickness of the inner granular cell layer (INL) due to increased intra ocular pressure (in words) ([1]; post-administration): shown statistically significantly
- decrease of the thickness of the inner plexus layer (IPL) due to increased intra ocular pressure (in words) ([1]; post-administration): suppressed significantly
- decrease of the thickness of the inner granular cell layer (INL) due to increased intra ocular pressure (in words) ([1]; pre-administration): tends to be suppressed; also recorded: suppressing tendency
- decrease of the thickness of the inner plexus layer (IPL) due to increased intra ocular pressure (in words) ([1]; pre-administration): suppressed significantly; also recorded: suppressing effect
- influence of administration on the outer nuclear layer (in words) [1]: does not have an influence

B1: semaphorin 3A: endogenous protein which collapses the nerve growth cone and suppresses axon elongation (protein, UniProt Q14563 21-771, looked up)
Semaphorin-3A: NYQNGKNNVPRLKLSYKEMLESNNVITFNGLANSSSYHTFLLDEERSRLYVGAKDHIFSFDLVNIKDFQKIVWPVSYTRRDECKWAGKDILKECANFIKVLKAYNQTHLYACGTGAFHPICTYIEIGHHPEDNIFKLENSHFENGRGKSPYDPKLLTASLLIDGELYSGTAADFMGRDFAIFRTLGHHHPIRTEQHDSRWLNDPKFISAHLISESDNPEDDKVYFFFRENAIDGEHSGKATHARIGQICKNDFGGHRSLVNKWTTFLKARLICSVPGPNGIDTHFDELQDVFLMNFKDPKNPVVYGVFTTSSNIFKGSAVCMYSMSDVRRVFLGPYAHRDGPNYQWVPYQGRVPYPRPGTCPSKTFGGFDSTKDLPDDVITFARSHPAMYNPVFPMNNRPIVIKTDVNYQFTQIVVDRVDAEDGQYDVMFIGTDVGTVLKVVSIPKETWYDLEEVLLEEMTVFREPTAISAMELSTKQQQLYIGSTAGVAQLPLHRCDIYGKACAECCLARDPYCAWDGSACSRYFPTAKRRTRRQDIRNGDPLTHCSDLHHDNHHGHSPEERIIYGVENSSTFLECSPKSQRALVYWQFQRRNEERKEEIRVDDHIIRTDQGLLLRSLQQKDSGNYLCHAVEHGFIQTLLKVTLEVIDTEHLEELLHKDDDGDGSKTKEMSNSMTPSQKVWYRDFMQLINHPNLNTMDEFCEQVWKRDRKQRRQRPGHTPGNSNKWKHLQENKKGRNRRTHEFERAPRSV
- concentration inducing growth cone collapse of the cultured nerve cells (cultured nerve cells): 10 pM
